Patent publication US20210198277A1, “AMINE-SUBSTITUTED ARYL OR HETEROARYL COMPOUNDS” (Epizyme, Inc., priority 2016, published 2021)

Key:
human EHMT2 913-1193 = target: T1, human EHMT2 913-1193 (Homo sapiens, UniProt Q96KQ7); experiment: EHMT2 enzyme assay on histone peptide substrate (EHMT2 PEP); format: biochemical; settings: Table II; read-out: EHMT2 PEP (IC50 μM)
T1 construct: recombinant purified human EHMT2 913-1193, Viva; purchased Viva
T1 sequence (Q96KQ7 913-1193): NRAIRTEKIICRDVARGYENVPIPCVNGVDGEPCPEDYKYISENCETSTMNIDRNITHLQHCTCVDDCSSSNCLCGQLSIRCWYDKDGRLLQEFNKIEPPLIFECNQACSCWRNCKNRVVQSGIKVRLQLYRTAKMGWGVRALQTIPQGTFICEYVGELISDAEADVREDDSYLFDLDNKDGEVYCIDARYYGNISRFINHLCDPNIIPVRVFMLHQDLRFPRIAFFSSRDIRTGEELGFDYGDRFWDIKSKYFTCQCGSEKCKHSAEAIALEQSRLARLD
In short: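 Compounds (10-point, 3-fold dilutions, top 50 μM final, 2% DMSO) preincubated 30 min with 0.031 nM EHMT2 in 20 mM Bicine pH 7.5, 0.002% Tween 20, 0.005% gelatin, 1 mM TCEP. Biotinylated histone peptide methylated with ^3H-SAM 60 min at room temperature. Quenched with unlabeled SAM; product captured on streptavidin Flashplate, scintillation counted.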

EHMT1 = target: T2, EHMT1 (Homo sapiens, UniProt Q9H9B1); experiment: EHMT1 enzyme assay on peptide substrate (EHMT1 PEP); format: biochemical; settings: Table II; read-out: EHMT1 PEP (IC50 μM)
T2 sequence (Q9H9B1 1-1298): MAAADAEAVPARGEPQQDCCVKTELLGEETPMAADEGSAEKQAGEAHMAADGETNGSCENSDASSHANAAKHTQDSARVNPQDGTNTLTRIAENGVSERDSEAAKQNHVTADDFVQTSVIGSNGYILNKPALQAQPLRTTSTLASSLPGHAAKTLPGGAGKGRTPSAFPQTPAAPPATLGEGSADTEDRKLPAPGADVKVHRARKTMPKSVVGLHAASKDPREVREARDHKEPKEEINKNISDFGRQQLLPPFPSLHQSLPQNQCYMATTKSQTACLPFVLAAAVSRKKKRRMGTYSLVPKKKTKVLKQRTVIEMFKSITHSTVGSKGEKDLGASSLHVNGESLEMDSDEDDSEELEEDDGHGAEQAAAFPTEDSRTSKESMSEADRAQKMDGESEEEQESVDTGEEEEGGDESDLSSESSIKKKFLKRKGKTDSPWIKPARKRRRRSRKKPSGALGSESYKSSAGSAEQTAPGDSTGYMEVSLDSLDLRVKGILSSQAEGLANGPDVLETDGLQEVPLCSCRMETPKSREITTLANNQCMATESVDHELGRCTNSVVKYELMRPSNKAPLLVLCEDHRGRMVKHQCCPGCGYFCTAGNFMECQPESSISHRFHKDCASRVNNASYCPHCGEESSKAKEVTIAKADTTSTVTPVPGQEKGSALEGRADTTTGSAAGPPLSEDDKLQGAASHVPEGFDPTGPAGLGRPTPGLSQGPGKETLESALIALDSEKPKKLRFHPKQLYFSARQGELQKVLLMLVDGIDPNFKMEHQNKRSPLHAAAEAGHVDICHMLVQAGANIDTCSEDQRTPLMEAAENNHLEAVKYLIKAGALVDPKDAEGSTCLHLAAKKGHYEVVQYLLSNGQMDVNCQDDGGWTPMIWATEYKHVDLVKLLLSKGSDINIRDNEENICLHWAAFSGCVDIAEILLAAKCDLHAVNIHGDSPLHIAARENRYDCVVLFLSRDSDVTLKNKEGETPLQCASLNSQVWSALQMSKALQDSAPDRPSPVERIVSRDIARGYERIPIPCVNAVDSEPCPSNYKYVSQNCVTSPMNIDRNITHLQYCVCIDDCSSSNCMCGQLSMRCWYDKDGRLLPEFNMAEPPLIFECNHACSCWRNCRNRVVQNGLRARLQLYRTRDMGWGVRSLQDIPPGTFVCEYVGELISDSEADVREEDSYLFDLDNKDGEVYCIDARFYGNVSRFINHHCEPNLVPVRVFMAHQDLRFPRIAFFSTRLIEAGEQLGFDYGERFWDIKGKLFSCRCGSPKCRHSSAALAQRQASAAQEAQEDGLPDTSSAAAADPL

| Structure (SMILES) | IC50 (human EHMT2 913-1193) | IC50 (EHMT1) |
| --- | --- | --- |
| COc1ccc(Nc2cc(NCC3CCN(C(C)=O)CC3)cnn2)cc1OCCCN1CCCC1 [Compound 185] | 1 to 10 µM | 1 to 10 µM |
| CNc1cc(C)nc(Nc2ccc(OC)c(OCCCN3CC[C@@H](F)C3)c2)n1 [Compound 186] | 0.1 to 1 µM | 0.1 to 1 µM |
| CNc1nc(Nc2ccc(OC)c(OCCCN3CCCC3)c2)ncc1F [Compound 187] | 1 to 10 µM | 1 to 10 µM |
| CNc1cc(Nc2ccc(OC)c(OCCCN3CCCC3)c2)cnn1 [Compound 188] | 0.1 to 1 µM | 0.1 to 1 µM |
| COc1ccc(Nc2nccc(NCc3ccc4nccn4c3)n2)cc1OCCCN1CCCC1 [Compound 191] | < 0.1 µM | < 0.1 µM |
| COc1ccc(Nc2nccc(NC3CN(C(C)=O)C3)n2)cc1OCCCN1CCCC1 [Compound 192] | 0.1 to 1 µM | 0.1 to 1 µM |
| COc1ccc(Nc2nccc(NCCn3cccn3)n2)cc1OCCCN1CCCC1 [Compound 193] | 0.1 to 1 µM | 0.1 to 1 µM |
| COc1ccc(Nc2nccc(NCC3CCN(C(C)=O)CC3)n2)cc1OC(C)CCN1CCCC1 (stereo not shown) [Compound 195] | 1 to 10 µM | 1 to 10 µM |
| COc1ccc(Nc2nccc(NCC3CCN(S(C)(=O)=O)CC3)n2)cc1OCCCN1CCCC1 [Compound 199] | 0.1 to 1 µM | 0.1 to 1 µM |
| CCOC(=O)N1CCC(CNc2ccnc(Nc3ccc(OC)c(OCCCN4CCCC4)c3)n2)CC1 [Compound 203] | 0.1 to 1 µM | 0.1 to 1 µM |
| COc1ccc(Nc2nccc(NCC3CCOCC3)n2)cc1OCCN1CCOCC1 [Compound 204] | 1 to 10 µM | 1 to 10 µM |
